{"source": "paper PMC11362529", "about": "“Exploring the neuroprotective potential of Nrf2-pathway activators against annonacin toxicity” (Scientific Reports, 2024)", "type_in_all_cases": "cell-based, human", "key": {"HO-1": {"system": "HO-1", "experiment": "HO-1 protein levels by ELISA", "conditions": "48 h", "procedure": "Protein expression levels of HO-1 were determined by ELISA (enzyme-linked immunosorbent assay) using a commercial kit (#ab207621, Abcam) according to the manufacturer's instructions. For this purpose, cells were seeded onto PLO/FN coated 6-well microplates. After the pharmacological treatments, cells were washed with warm HBSS, trypsinized and pelleted as before, and finally lysed in 100 µl cell extraction buffer PTR provided by the kit. Sample concentration was measured by BCA, as previously mentioned, and 1 µg of total protein extract was loaded into the respective wells. All samples were run in duplicates and the absorbances were measured on a FLUOstar® Omega plate reader at λ 450 nm. For data analysis, we used the MARS software (BMG LabTech). First, we calculated the means of the absorbances for each condition. The mean value of the blank control (i.e., a condition with only sample diluent buffer) was subtracted from the mean values of all standard and experimental conditions. A 4PL-curve fit was plotted on Prism 9 software (GraphPad Software, San Diego, CA, USA), using the blank-corrected mean values of standard conditions. The obtained curve was used to determine the HO-1 protein concentration, followed by multiplication by the dilution factor to obtain the concentration of the target-protein in each sample."}, "NQO1": {"system": "NQO1", "experiment": "NQO1 mRNA after siRNA transfection (RT-qPCR)", "conditions": "Nrf2 siRNA transfected cells, annonacin model", "procedure": "LUHMES cells were seeded on PLO/FN coated 6-well microplates and the pharmacological treatments were performed as previously explained. The cells were washed in HBSS, prior to being collected for mRNA isolation (RNeasy® Plus Mini Kit, Qiagen, Venlo, Netherlands), following the manufacturer’s instructions. The mRNA concentrations were determined on a Nano-Drop 2000c (Thermo Fisher Scientific) and 1 µg of mRNA was reverse-transcribed into cDNA with the iScript™ Reverse Transcription Supermix for RT-qPCR Kit (Bio-Rad) on a thermal cycler (SensoQuest, Göttingen, Germany). […] The relative expression of mRNA was calculated using the CFX Manager software (ΔΔCt method) from Bio-Rad, and the Ct values of the target-genes were normalized to the reference genes RPL22 and UBQLN1. […]\nLUHMES cells seeded on PLO/FN coated 48-well microplates were left to differentiate for 5 days, before being transfected with 25 nM of NRF2-targeting (gene ID 4780) or negative control siRNA (siTOOLs Biotech, Planegg, Germany), in Opti-MEM + GlutaMax medium (Thermo Fisher Scientific) with 0.4% of lipofectamine RNAiMax. […] Cell viability was determined by calcein assay, after 48 h of treatment, as explained before."}, "4R-tau transcripts": {"system": "4R-tau transcripts", "experiment": "4R-tau mRNA and 4R-/3R-tau ratio by RT-qPCR", "conditions": "48 h", "procedure": "(§1) LUHMES cells were seeded on PLO/FN coated 6-well microplates and the pharmacological treatments were performed as previously explained. The cells were washed in HBSS, prior to being collected for mRNA isolation (RNeasy® Plus Mini Kit, Qiagen, Venlo, Netherlands), following the manufacturer’s instructions. The mRNA concentrations were determined on a Nano-Drop 2000c (Thermo Fisher Scientific) and 1 µg of mRNA was reverse-transcribed into cDNA with the iScript™ Reverse Transcription Supermix for RT-qPCR Kit (Bio-Rad) on a thermal cycler (SensoQuest, Göttingen, Germany). Real-time PCR was performed using SYBR™ Select Master Mix for CFX (Thermo Fisher Scientific) with 30 ng cDNA and 0.4 µM of primers against the respective target genes (Supplementary Table S3), in a 20 µl total volume, on a CFX96 Touch™ Real-Time Cycler (Bio-Rad). The relative expression of mRNA was calculated using the CFX Manager software (ΔΔCt method) from Bio-Rad, and the Ct values of the target-genes were normalized to the reference genes RPL22 and UBQLN1. The data were reported as fold change relative to the control (DMSO-treated) condition."}, "SRSF2/SC-35": {"system": "SRSF2/SC-35", "experiment": "pSC-35 speckle immunofluorescence", "conditions": "48 h", "procedure": "For immunostaining, cells were seeded in differentiation medium, on 24-well microplates containing PLO/FN-coated 13 mm Ø coverslips, and treated for 48 h as previously described. On the readout day, the medium was removed and cells were fixed, permeabilized and blocked as before. Primary antibody dilutions were made in 1.5% NHS in PBS (Supplementary Table S1) and incubated overnight at 4 °C. On the following day, the coverslips were washed three times with PBS and incubated with host-specific fluorescence secondary antibodies (Supplementary Table S1), for 2 h at RT, protected from light. After another three washes with PBS, cell nuclei were stained with 1:5,000 DAPI (4’,6-diamidino-2-phenylindole, Thermo Fisher Scientific) in PBS, for 15 min at RT. The coverslips were mounted in mowiol and left to dry for 24 h before imaging. Image acquisition for FI quantification was done with a 200 × magnification (20 × objective, 10 × intermediate magnification), or 400x (40 × objective, 10 × intermediate magnification) in the case of pSC-35 and AT8 immunostaining, on a fluorescence microscope Leica-DFC9000GTC (Leica). In the case of phospho-tau AT8, Z-stacks consisting of 18 plane images with a step size of 1 μm were acquired. The image acquisition parameters were identical for all conditions. Quantification of 8-OHdG (8-hydroxyguanosine) FI and tau species was performed using the ImageJ software. Ten-to-fifteen images per condition across triplicates, from different view fields, were used for this purpose. Briefly, TIFF exported images were submitted to background subtraction using the rolling ball method with a radius of 50 pixels. For 8-OHdG analysis, a channel-specific threshold was applied to all images to define the ROI and FI was measured and normalized to the cell number, determined by the DAPI channel. The average value of the different view fields per experimental condition was taken and reported as fold change compared to the control (DMSO-treated) condition. For the analysis of phospho-tau AT270 and pan-tau reactivity, channel specific thresholds were applied to all images. The DAPI channel was used to define nuclei from viable cells, by selecting particles with a size above 15 µm^2 and a circularity of 0.3–1.0. […] These masks were used to quantify the number of somas expressing each of these tau species, as well as the respective FI. The number of AT270-positive somas was divided by the number of pan-tau-positive somas and expressed as a percentage. […] For quantification of pSC-35 and AT8 speckle number and FI, we used CellProfiler™ 4 (https://cellprofiler.org/, Broad Institute Inc., Cambridge, MA, USA) speckle counting pipeline. […]"}, "total tau transcripts": {"system": "total tau transcripts", "experiment": "Total tau mRNA by RT-qPCR", "conditions": "20 nM annonacin alone, 48 h, vs control", "procedure": "as §1"}, "3R-tau transcripts": {"system": "3R-tau transcripts", "experiment": "3R-tau mRNA by RT-qPCR", "conditions": "20 nM annonacin alone, 48 h, vs control", "procedure": "as §1"}, "[1]": {"conditions": "15 μM ezetimibe + 20 nM annonacin"}}, "data": [{"compound": "Cn1c(Nc2nc3ccc(C(F)(F)F)cc3s2)nc2cc(C(=O)NCCOCCO)ccc21", "note": "[HPP-D]", "values": [{"measurement": "HO-1 protein expression", "setting": "HO-1; absence of annonacin", "value": "significantly increased the HO-1 protein expression"}, {"measurement": "HO-1 protein expression", "setting": "HO-1; presence of 20 nM annonacin", "value": "significantly increased the HO-1 protein expression"}]}, {"compound": "C=CC(C)(C)c1cc(/C=C/C(=O)c2ccc(O)cc2)c(OC)cc1O", "note": "[licochalcone A]", "values": [{"measurement": "NQO1 expression despite Nrf2 knockdown", "setting": "NQO1", "value": "still led to an induction of NQO1 expression"}]}, {"compound": "O=C1[C@H](CC[C@H](O)c2ccc(F)cc2)[C@@H](c2ccc(O)cc2)N1c1ccc(F)cc1", "note": "[ezetimibe]", "values": [{"measurement": "4R-/3R-tau isoforms ratio", "setting": "4R-tau transcripts; [1]", "value": "remained similar to healthy control cells"}, {"measurement": "4R-tau transcripts", "setting": "4R-tau transcripts; [1]", "value": "prevented the annonacin-induced upregulation of 4R-tau transcripts"}, {"measurement": "number of pSC-35 speckles per nucleus", "setting": "SRSF2/SC-35; [1]", "value": "non-significant reduction of the number of speckles per nucleus"}, {"measurement": "pSC-35 fluorescence intensity per nucleus", "setting": "SRSF2/SC-35; 15 μM ezetimibe + 20 nM annonacin, vs control", "value": "twofold"}]}, {"compound": "CCCCCCCCCCCC[C@@H](O)[C@H]1CC[C@H]([C@H](O)CCCC[C@H](O)CCCCC[C@@H](O)CC2=CC(C)OC2=O)O1", "note": "(stereo partly shown) [annonacin]", "values": [{"measurement": "total tau transcripts", "setting": "total tau transcripts", "value": "significantly downregulated"}, {"measurement": "3R-tau transcripts", "setting": "3R-tau transcripts", "value": "downregulation of 3R-tau transcripts"}, {"measurement": "4R-/3R-tau isoforms ratio", "setting": "4R-tau transcripts; 20 nM annonacin alone", "value": 3.5, "unit": "fold over control"}, {"measurement": "upregulation of 4R-tau transcripts over control cells", "setting": "4R-tau transcripts; 20 nM annonacin alone", "value": "twofold"}, {"measurement": "number of pSC-35 speckles per nucleus", "setting": "SRSF2/SC-35; 20 nM annonacin alone", "value": "no changes in the number of pSC-35 speckles per nucleus"}, {"measurement": "pSC-35 fluorescence intensity", "setting": "SRSF2/SC-35; 20 nM annonacin alone", "value": "no changes"}]}]}
